# Data from patent US20230063462A1, “SULFONIMIDAMIDE COMPOUNDS AND COMPOSITIONS FOR TREATING CONDITIONS ASSOCIATED WITH NLRP ACTIVITY” (NOVARTIS AG, priority 2019, published 2023).
# Like-named read-outs stand apart in the source and are kept apart here.
# Tested on: THP-1 cells
# Experiment: hTHP-1 assay: gramicidin-stimulated IL-1β detection in PMA-treated THP-1 cells
# Format: cell-based, human
# Procedure: The following protocol is suitable for testing the activity of the compounds disclosed herein.
# 1. Experimental procedure • 1.1 Cell Culture • 1) Culture THP-1 cells in the complete RPMI-1640 medium with 10% FBS at 37° C., 5% CO2. • 2) Passage the cells every 3 days by inoculating 3×10^5 cells per ml. • 1.2 Compound Preparation • Prepare the 3-fold serial dilution of the compounds with DMSO in a 384-well LDV Microplate using TECAN EVO system to generate the compound source plate with 10 concentrations. […] HC: 100 μM CRID3 (MCC950)+5 μM gramicidin LC: 5 μM Gramicidin. • 1.5 IL-1β Detection • 1) Homogenize the 5× diluent #5 with a vortex and add 1 volume of stock solution in 4 volumes of distilled water. • 2) Thaw 20× stock solution of anti-IL1β-Cryptate-antibody and anti-IL1β XL-antibody. Dilute these two antibodies to 1× with detection buffer #3. • 3) Pre-mix the two ready-to-use antibody solutions just prior to use. • 4) Dispense 4 ul of pre-mixed Anti-IL1β antibodies working solution into all wells. • 5) Seal the plate and incubate overnight at 4° C. • 6) Read the cell plate using EnVison and plot Readout vs. the test compound concentration to calculate the IC50.
# 2. Data Analysis: • 1. IC50 of compounds can be calculated using the following formulas • Formula for IC50
# % inhibition=100−100×[HCave-Readout/(HCave−LCave)] • 2. Fit the normalized data in a dose-response manner using XLfit, and calculate the compound concentration.
# [1] = Table B1, 2% fetal bovine serum, class symbol, read-out: hTHP-1 IC50
# [2] = Table B1, 2% fetal bovine serum, numeric value, read-out: hTHP-1 IC50
# [3] = Homo sapiens, THP-1, Table B1, 2% fetal bovine serum, class symbol, read-out: hTHP-1 IC50
# [4] = Homo sapiens, THP-1, Table B1, 2% fetal bovine serum, numeric value, read-out: hTHP-1 IC50
SMILES,IC50 [1] [nM],IC50 [2] [nM],further results
"NS(=O)(=NC(=O)Nc1c2c(nc(C(F)(F)F)c1C1CC1)CCC2)c1ccn(C2CC2)n1 (racemic) [Example 899, (S) or (RS)-1-cyclopropyl-N′-((3-cyclopropyl-2-(trifluoromethyl)-6,7-dihydro-5H-cyclopenta [b]pyridin-4-yl)carbamoyl)-1H-pyrazole-3-sulfonimidamide]",–,–,"IC50 (Homo sapiens, THP-1, Table B2, 10% FBS, class symbol, read-out: hTHP-1 IC50 in 10% FBS): 5000 to 30000 nM; IC50 (Homo sapiens, THP-1, Table B2, 10% FBS, numeric value, read-out: hTHP-1 IC50 in 10% FBS): 9960 nM"
"CC(C)(O)c1csc(S(=O)(=NC(=O)Nc2c3c(cc4c2CCC4)CCC3)NC#N)c1 (single isomer, unassigned) [Example 1, (S) or (R)-N-cyano-N′-(1,2,3,5,6,7-hexahydro-s-indacen-4-ylcarbamoyl)-4-(2-hydroxypropan-2-yl)thiophene-2-sulfonimidamide]",40 to 200,53.5,–
"CC(C)(O)c1csc(S(=O)(=NC(=O)Nc2c3c(cc4c2CCC4)CCC3)NC#N)c1 (single isomer, unassigned) [Example 2, (R) or (S)-N-cyano-N′-((1,2,3,5,6,7-hexahydro-s-indacen-4-yl)carbamoyl)-4-(2-hydroxypropan-2-yl)thiophene-2-sulfonimidamide]",8 to 40,14.6,–
"CC(C)(O)c1ncc(S(=O)(=NC(=O)Nc2c3c(nc4c2CCC4(C)C)CCC3)NC#N)s1 (single isomer, unassigned) [Example 4, (S) or (R)-N-cyano-N′-((3,3-dimethyl-1,2,3,5,6,7-hexahydrodicyclopenta[b,e]pyridin-8-yl)carbamoyl)-2-(2-hydroxypropan-2-yl)thiazole-5-sulfonimidamide]",40 to 200,59.7,–
"CC(C)(O)c1ncc(S(=O)(=NC(=O)Nc2c3c(nc4c2CCC4(C)C)CCC3)NC#N)s1 (single isomer, unassigned) [Example 5, (R) or (S)-N-cyano-N′-((3,3-dimethyl-1,2,3,5,6,7-hexahydrodicyclopenta[b,e]pyridin-8-yl)carbamoyl)-2-(2-hydroxypropan-2-yl)thiazole-5-sulfonimidamide]",200 to 1000,236,–
"CC(C)(O)c1csc(S(=O)(=NC(=O)Nc2c3c(cc4c2CC4)CCC3)NC#N)c1 (single isomer, unassigned) [Example 6, (R) or (S)-N-cyano-4-(2-hydroxypropan-2-yl)-N′-((2,4,5,6-tetrahydro-1H-cyclobuta[f]inden-3-yl)carbamoyl)thiophene-2-sulfonimidamide]",40 to 200,71.7,–
"CC(C)(O)c1csc(S(=O)(=NC(=O)Nc2c3c(cc4c2CC4)CCC3)NC#N)c1 (single isomer, unassigned) [Example 7, (S) or (R)-N-cyano-4-(2-hydroxypropan-2-yl)-N′-((2,4,5,6-tetrahydro-1H-cyclobuta[f]inden-3-yl)carbamoyl)thiophene-2-sulfonimidamide]",< 8,6.8,–
"CC(C)(O)c1ccc(CS(=O)(=NC(=O)Nc2c3c(cc4c2CCC4)CCC3)NC#N)cc1 (single isomer, unassigned) [Example 8, (S) or (R)-N-cyano-N′-((1,2,3,5,6,7-hexahydro-s-indacen-4-yl)carbamoyl)-1-(4-(2-hydroxypropan-2-yl)phenyl)methanesulfonimidamide]",–,42.2,IC50 [3]: 40 to 200 nM
"CC(C)(O)c1ccc(CS(=O)(=NC(=O)Nc2c3c(cc4c2CCC4)CCC3)NC#N)cc1 (single isomer, unassigned) [Example 9, (R) or (S)-N-cyano-N′-((1,2,3,5,6,7-hexahydro-s-indacen-4-yl)carbamoyl)-1-(4-(2-hydroxypropan-2-yl)phenyl)methanesulfonimidamide]",40 to 200,104,–
"Cc1oc(S(=O)(=NC(=O)Nc2c(C(C)C)cc(F)cc2C(C)C)NC#N)cc1C(C)(C)O (single isomer, unassigned) [Example 10, (S) or (R)-N-cyano-N′-((4-fluoro-2,6-diisopropylphenyl)carbamoyl)-4-(2-hydroxypropan-2-yl)-5-methylfuran-2-sulfonimidamide]",1000 to 5000,2440,–
"Cc1oc(S(=O)(=NC(=O)Nc2c(C(C)C)cc(F)cc2C(C)C)NC#N)cc1C(C)(C)O (single isomer, unassigned) [Example 11, (R) or (S)-N-cyano-N′-((4-fluoro-2,6-diisopropylphenyl)carbamoyl)-4-(2-hydroxypropan-2-yl)-5-methylfuran-2-sulfonimidamide]",40 to 200,90.6,–
"CC(C)(O)c1nc(CO)c(S(=O)(=NC(=O)Nc2c3c(nc4c2CCC4(C)C)CCC3)NC#N)s1 (single isomer, unassigned) [Example 13, (R) or (S)-N-cyano-N′-((3,3-dimethyl-1,2,3,5,6,7-hexahydrodicyclopenta[b,e]pyridin-8-yl)carbamoyl)-4-(hydroxymethyl)-2-(2-hydroxypropan-2-yl)thiazole-5-sulfonimidamide]",–,–,IC50 [3]: 40 to 200 nM; IC50 [4]: 112 nM
"CC(C)c1cc(C#N)cc(C(C)C)c1NC(=O)N=S(=O)(NC#N)c1sc(C(C)(C)O)nc1CO (single isomer, unassigned) [Example 22, (R) or (S)-N-cyano-N′-((4-cyano-2,6-diisopropylphenyl)carbamoyl)-4-(hydroxymethyl)-2-(2-hydroxypropan-2-yl)thiazole-5-sulfonimidamide]",–,–,IC50 [3]: 40 to 200 nM; IC50 [4]: 79.2 nM

# Now from value to compound, other results behind:
IC50 [1] [nM],IC50 [2] [nM],SMILES,further results
40 to 200,973,"CN(C)Cc1ccc(S(=O)(=NC(=O)Nc2c3c(cc4c2CCC4)CCC3)NC#N)c(F)c1 (single isomer, unassigned) [Example 14, (S) or (R)-N-cyano-4-((dimethylamino)methyl)-2-fluoro-N′-((1,2,3,5,6,7-hexahydro-s-indacen-4-yl)carbamoyl)benzenesulfonimidamide]",–
200 to 1000,209,"CN(C)Cc1ccc(S(=O)(=NC(=O)Nc2c3c(cc4c2CCC4)CCC3)NC#N)c(F)c1 (single isomer, unassigned) [Example 15, (R) or (S)-N-cyano-4-((dimethylamino)methyl)-2-fluoro-N′-((1,2,3,5,6,7-hexahydro-s-indacen-4-yl)carbamoyl)benzenesulfonimidamide]",–
200 to 1000,204,"CC1CCc2c1nc1c(c2NC(=O)N=S(=O)(NC#N)c2cc(C(C)(C)O)cs2)CCC1 (single isomer, unassigned) [Example 16, (R,R) or (R,S)-N-cyano-4-(2-hydroxypropan-2-yl)-N′-(((S)-3-methyl-1,2,3,5,6,7-hexahydrodicyclopenta[b,e]pyridin-8-yl)carbamoyl)thiophene-2-sulfonimidamide]",–
1000 to 5000,1240,"CC1CCc2c1nc1c(c2NC(=O)N=S(=O)(NC#N)c2cc(C(C)(C)O)cs2)CCC1 (single isomer, unassigned) [Example 17, (R,S) or (R,R)-N-cyano-4-(2-hydroxypropan-2-yl)-N′-(((R)-3-methyl-1,2,3,5,6,7-hexahydrodicyclopenta[b,e]pyridin-8-yl)carbamoyl)thiophene-2-sulfonimidamide]",–
40 to 200,80.3,"CC1CCc2c1nc1c(c2NC(=O)N=S(=O)(NC#N)c2cc(C(C)(C)O)cs2)CCC1 (single isomer, unassigned) [Example 18, (S,S) or (S,R)-N-cyano-4-(2-hydroxypropan-2-yl)-N′-(((S)-3-methyl-1,2,3,5,6,7-hexahydrodicyclopenta[b,e]pyridin-8-yl)carbamoyl)thiophene-2-sulfonimidamide]",–
200 to 1000,705,"CC1CCc2c1nc1c(c2NC(=O)N=S(=O)(NC#N)c2cc(C(C)(C)O)cs2)CCC1 (single isomer, unassigned) [Example 19, (S,R) or (S,S)-N-cyano-4-(2-hydroxypropan-2-yl)-N′-(((R)-3-methyl-1,2,3,5,6,7-hexahydrodicyclopenta[b,e]pyridin-8-yl)carbamoyl)thiophene-2-sulfonimidamide]",–
1000 to 5000,2750,"CC(C)c1cc(C#N)c(F)c(C(C)C)c1NC(=O)N=S(=O)(NC#N)c1cnc(C(C)(C)O)s1 (single isomer, unassigned) [Example 20, (S) or (R)-N-cyano-N′-((4-cyano-3-fluoro-2,6-diisopropylphenyl)carbamoyl)-2-(2-hydroxypropan-2-yl)thiazole-5-sulfonimidamide]",–
40 to 200,50.8,"CC(C)c1cc(C#N)c(F)c(C(C)C)c1NC(=O)N=S(=O)(NC#N)c1cnc(C(C)(C)O)s1 (single isomer, unassigned) [Example 21, (R) or (S)-N-cyano-N′-((4-cyano-3-fluoro-2,6-diisopropylphenyl)carbamoyl)-2-(2-hydroxypropan-2-yl)thiazole-5-sulfonimidamide]",–
